# Patent publication US20220324912A1, “THERAPEUTIC PEPTIDES” (COHBAR, INC., priority 2019, published 2022)
# Residues, ends and D or L forms follow the SMILES beside them.
# Tests used:
# [1] = tested on: Caspase 3/7 in MDA-MB-231 cells; test: Caspase 3/7 Activity in MDA-MB-231 Cells (Caspase-Glo 3/7); format: cell-based, human; conditions: for Caspase 3/7 activity, Percent of Control Activity: peptides 10 μM, 18 hours, relative to DMSO control
# Method: The effect of the peptides on cell death/survival can be assessed using a caspase-3 assay. Peptides were dissolved with DMSO at 10 mM stock. […] Staurosporine (Selleckchem) was dissolved with DMSO at 1 mM stock. Caspase-Glo 3/7 Assay Reagent was purchased from Promega (Madison, Wis.). MDA-MB-231 human breast cancer cell line was purchased from American Type Culture Collection (Manassas, Va.). MDA-MB-231 cells were grown in DMEM Medium supplemented with 10% FBS. 100 μg/ml penicillin and 100 μg/ml streptomycin were added to the culture medium. Cultures were maintained at 37° C. in a humidified atmosphere of 5% CO2 and 95% air. MDA-MB-231 cells were incubated with test peptides in duplicate at 10 μM at 37° C. in a humidified atmosphere of 5% CO2 and 95% air for 18 hours. 25 μl of Caspase-Glo 3/7 Assay Reagent was added to each well and incubated at 37° C., 5% CO2 for 1 hour. Luminescence for each sample well on the plate was measured by Envision 2104 Multilabel Reader (PerkinElmer, Santa Clara, Calif.). Activity was calculated relative to DMSO control.
# 3T3-L1 adipocytes = test: Free Fatty Acid Levels in 3T3-L1 Adipocytes (Example 4, 25 μM); format: cell-based, mouse; conditions: peptides 25 μM, 20-22 hours then 3 hours with isoproterenol 1 nM, 3T3-L1 adipocytes
# Method: Following 12-15 days' differentiation, test peptides were added to a final concentration of 25 μM and incubated for 20-22 hours in Adipocyte Maintenance Medium. After 20-22 hours, isoproterenol (1 nM) was added to all wells except untreated controls and test peptides were replenished. Cells were incubated for a further 3 hours in Assay Buffer (Zen-Bio). Free fatty acid concentrations in the media were determined using a Free Fatty Acid Assay Kit (Zen-Bio) according to the manufacturer's instructions using a plate reader (540 nm). Absorbance values were corrected for untreated background and expressed relative to isoproterenol treated cells. Treatment with isoproterenol (1 nM) alone was used as the free fatty acid level stimulatory control. The relative standard deviation of the isoproterenol control was <10%. […] Free fatty acid levels for insulin (100 nM) treatment were <5% of the isoproterenol control value.
# MCF-7 cells = conditions: human, 72 hours, 10 μM
# Method: Peptides and reference compound staurosporine (Selleckchem) were dissolved with DMSO at 10 mM stock. CellTiter 96® AQueous One Solution Reagent (MTS assay reagent) was purchased from Promega (Madison, Wis.). MCF-7 human breast cancer cell line was purchased from American Type Culture Collection (Manassas, Va.). MCF-7 cells were grown in EMEM Medium supplemented with 10% FBS and 0.01 mg/ml human recombinant insulin. 100 μg/ml penicillin and 100 μg/ml streptomycin were added to the culture medium. Cells were incubated with test peptides at 10 μM at 37° C. in a humidified atmosphere of 5% CO2 and 95% air for 72 hours. 5 μl of CellTiter 96® AQueous One Solution Reagent (MTS assay reagent) was added to each well and incubated at 37° C., 5% CO2 for 5 hours. Absorbance at 492 nm was recorded by Envision 2104 Multilabel Reader. Treatment with DMSO alone was used as the cell viability activity control.
# MDA-MB-231 cells = test: Cell viability, MTS Assay in MDA-MB-231 Cells; format: cell-based; conditions: human, 72 hours
# Method: Test compounds and reference compound staurosporine (Selleckchem) were all dissolved with DMSO at 10 mM stock. […] Activity was calculated relative to DMSO control. […] Cell viability was 3% of the DMSO control value for Staurosporine (10 uM).
# [2] = Stability in Mouse Plasma; format: in vitro ADME; conditions: pooled mouse plasma, 37° C., peptides 100 DM
# Method: Peptides (100 DM) were incubated in pooled mouse plasma at 37° C. and samples were removed and immediately analyzed for the concentration of intact peptide by LC/MS/MS over the course of 3 hours. The percent of peptide remaining in plasma at each time point was calculated relative to the initial peak area (Table 9).
# 3T3-L1 mouse adipocytes = test: Free Fatty Acid Levels in 3T3-L1 Mouse Adipocytes (Example 12, 10 μM); format: cell-based; conditions: peptides 10 μM, 20-22 hours then 3 hours with isoproterenol 1 nM, 3T3-L1 mouse adipocytes
# Method: The effect of the peptides on fatty acid metabolism can be assessed using an assay of free fatty acid levels in cultured cells such as mouse adipocytes. Peptides were initially prepared as 10 mM stock in DMSO, diluted to 1 mM in H2O, and used at a final concentration of 10 μM (0.1% DMSO). […] After 20-22 hours, 1 nM isoproterenol was added to all wells except untreated controls and test peptides were replenished. Insulin at 100 nM was added to control wells. […] Free fatty acid concentrations in the media were determined using a Free Fatty Acid Assay kit (Zen-Bio) according to the manufacturer's instructions using a Cytation 3 plate reader at 540 nm (BioTek, Winooski, Vt.). Absorbance values were corrected for untreated background and expressed relative to isoproterenol treated cells. Treatment with isoproterenol (1 nM) alone was used as the free fatty acid level stimulatory control. The relative standard deviation of the isoproterenol control was <10%. […] Free fatty acid levels for insulin (100 nM) treatment were <5% of the isoproterenol control value.
# DIO mice = test: Metabolic parameters in DIO mice, twice daily intraperitoneal, 10 days (Example 16); format: in vivo, mouse; conditions: 5 mg/kg, male DIO mice
# Method: Male C57BL/6 mice were maintained on a high fat diet for 18 weeks to develop diet induced obesity. Animals were randomized to treatment groups based on blood glucose levels and body weight. The peptides of the invention were administered to groups of male DIO mice twice daily by intraperitoneal injection at a dose of 5 mg/kg/dose for 10 days (N=8 animals per treatment group). An additional group of male DIO mice (n=8) received vehicle (water) alone administered twice daily by intraperitoneal injection. Body weight, blood glucose levels and food intake were monitored. Body mass distribution (fat vs lean) was determined by quantitative whole body NMR prior to dosing and at the end of dosing.
# C2C12 cells [3] = test: Cell Proliferation in C2C12 Cells (Cyquant DNA dye); format: cell-based, mouse; conditions: peptides 10 μM, 72 hours with readdition every 24 hours, relative to 0.1% DMSO control
# Method: The effect of the peptides on cell proliferation was assessed using a DNA dye binding assay in cultured cells such as mouse myoblast cells. Peptides were initially prepared as 10 mM stock in DMSO, diluted to 1 mM in H2O, and added at a final concentration of 10 μM (0.1% DMSO). Lovastatin was used as a growth arrest control at final concentration of […]. […] C2C12 cells were grown in DMEM supplemented with 20% FBS with 100 IU/ml penicillin and 100 μg/ml streptomycin. […] C2C12 cells were seeded at 800 cells per well on 96-well plates. […] Cell proliferation was determined using Cyquant Direct Nucleic Acid Stain (Thermo Fisher Scientific, Waltham, Mass.) according to the manufacturer's instructions. Fluorescence for each sample well on the plate was measured using a Cytation 3 plate reader at Ex/Em=495/535 nm (BioTek, Winooski, Vt.). Activity was calculated relative to 0.1% DMSO untreated control. The relative standard deviation for the lovastatin control was <27%. The cell proliferation for the lovastatin control was <25% of the value for untreated control.
# C2C12 cells [4] = test: Cellular ROS Levels Induced by TBHP in C2C12 Cells (DCFDA); format: cell-based, mouse; conditions: peptides 10 μM, 18-20 hours, then TBHP 100 μM 1 hour, relative to TBHP control
# Method: The protective or synergistic effect of the peptides on cellular levels of reactive oxygen species (ROS) induced by oxidative stress can be assessed using an assay of ROS in cultured cells such as mouse myoblasts exposed to a suitable oxidative stress. Peptides were initially prepared as 10 mM stock in DMSO, diluted to 1 mM in H2O, and added at a final concentration of 10 μM (0.1% DMSO). […] TBHP was used at final concentration of 100 μM. Sulforaphane at final concentration of 10 µM was used as a protective control against TBHP induced ROS production. […] C2C12 cells were grown in DMEM supplemented with 20% FBS with 100 IU/ml penicillin and 100 μg/ml streptomycin. […] C2C12 cells were seeded at 7,500 cells per well on 96-well plates. […] After 18-20 hours of incubation the cells were loaded with DCFDA for 45 min. TBHP at 100 μM was then added to the appropriate wells for 1 hour. ROS activity was determined using a DCFDA Cellular ROS Detection Assay kit (Abcam, Cambridge, Mass.) according to the manufacturer's instructions. Fluorescence in each sample well on the plate was measured using a Cytation 3 plate reader at Ex/Em=485/535 nm (BioTek, Winooski, Vt.). Activity was calculated relative to TBHP control. The relative standard deviation of the sulforaphane control was <20%. The ROS level produced by the sulforaphane control in the presence of TBHP was 52% of the TBHP control.
molecule,measurement,setting,value
CSCC[C@H](N)C(=O)N[C@H](C(=O)N[C@@H](Cc1ccccc1)C(=O)N[C@@H](CCC(N)=O)C(=O)N[C@@H](CCCCN)C(=O)N[C@H](C(=O)N[C@@H](Cc1c[nH]cn1)C(=O)N[C@@H](CC(N)=O)C(=O)N[C@@H](CC(C)C)C(=O)N[C@@H](CC(N)=O)C(=O)N[C@@H](CCC(N)=O)C(=O)N[C@@H](Cc1c[nH]cn1)C(=O)N[C@@H](CC(N)=O)C(=O)N[C@@H](Cc1c[nH]cn1)C(=O)N1CCC[C@H]1C(=O)N[C@@H](CCC(N)=O)C(=O)N1CCC[C@H]1C(=O)N[C@@H](CC(N)=O)C(=O)N[C@@H](Cc1ccc(O)cc1)C(=O)O)[C@@H](C)O)[C@@H](C)O [compound 20] (H-MTFQKTHNLNQHNHPQPNY-OH; N-terminus and C-terminus assumed),"Caspase 3/7 activity, Percent of Control Activity",[1],58%
same,"Free fatty acid levels, Percent of Control Value (percent isoproterenol control)",3T3-L1 adipocytes,71%
same,"MTS cell viability, Percent of Control Activity",MCF-7 cells,63%
same,"MTS cell viability, Percent of Control Activity",MDA-MB-231 cells,85%
"CN[C@@H]1C[C@H]2O[C@@](C)([C@@H]1OC)n1c3ccccc3c3c4c(c5c6ccccc6n2c5c31)C(=O)NC4 [staurosporine, reference compound]","Caspase activity, % of background-corrected DMSO control value",[1]; staurosporine 0.05 nM,130%
CC[C@H](C)[C@H](NC(=O)[C@H](C)NC(=O)[C@H](CO)NC(=O)CNC(=O)[C@@H]1CCCN1C(=O)[C@H](CC(C)C)NC(=O)[C@H](CCCNC(=N)N)NC(=O)[C@@H](N)CCSC)C(=O)N[C@@H](CC(C)C)C(=O)N[C@H](C(=O)N[C@@H](CC(N)=O)C(=O)N1CCC[C@H]1C(=O)N[C@H](C(=O)N[C@@H](CC(C)C)C(=O)NCC(=O)N[C@@H](Cc1c[nH]c2ccccc12)C(=O)N[C@H](C(=O)N[C@@H](Cc1c[nH]c2ccccc12)C(=O)N[C@H](C(=O)O)C(C)C)C(C)C)C(C)C)[C@@H](C)O [compound 7] (H-MRLPGSAILTNPVLGWVWV-OH),% Remaining at 0 min,[2]; 0 min,100%
same,"remaining at 0.25 h, 100 DM",[2]; 15 min,70.9%
same,"remaining at 0.5 h, 100 DM",[2]; 30 min,68.2%
same,"remaining at 1 h, 100 DM",[2]; 60 min,52.6%
same,"remaining at 2 h, 100 DM",[2]; 120 min,31.6%
same,"remaining at 3 h, 100 DM",[2]; 180 min,18.1%
same,"MTS cell viability, Percent of Control Activity",MCF-7 cells,64%
same,"MTS cell viability, Percent of Control Activity",MDA-MB-231 cells,88%
CC[C@H](C)[C@H](NC(=O)CNC(=O)[C@H](CCC(=O)O)NC(=O)[C@H](CCCNC(=N)N)NC(=O)CNC(=O)[C@H](Cc1c[nH]c2ccccc12)NC(=O)[C@@H]1CCCN1C(=O)[C@H](Cc1c[nH]cn1)NC(=O)CNC(=O)CNC(=O)[C@H](CCC(=O)O)NC(=O)[C@H](CO)NC(=O)[C@H](CC(C)C)NC(=O)[C@@H]1CCCN1C(=O)CNC(=O)[C@H](CCCCN)NC(=O)[C@@H](NC(=O)[C@@H](NC(=O)[C@@H](N)CCSC)C(C)C)C(C)C)C(=O)O [compound 25] (H-MVVKGPLSEGGHPWGREGI-OH; N-terminus and C-terminus assumed),"Caspase 3/7 activity, Percent of Control Activity",[1],46%
same,"Free fatty acid levels, Percent of Control Value (percent isoproterenol control)",3T3-L1 adipocytes,61%
same,"MTS cell viability, Percent of Control Activity",MCF-7 cells,40%
same,"MTS cell viability, Percent of Control Activity",MDA-MB-231 cells,76%
14 (MRLPGPAILTNPVLGWVWV) [compound 14],"Free fatty acid levels, Percent of Isoproterenol Control Activity",3T3-L1 mouse adipocytes,80.8%
same,Difference from Vehicle Control: Decrease from Baseline in Blood Glucose,DIO mice,-6.12 mg/dL
same,Difference from Vehicle Control: Decrease from Baseline in Body Weight,DIO mice,−2.48%
same,Difference from Vehicle Control: Decrease from Baseline in Fat Mass,DIO mice,-0.93 g
same,"Cell proliferation, Percent of Control",C2C12 cells [3],93.2%
same,"Cellular ROS levels induced by TBHP, Percent of Control",C2C12 cells [4],106.0%
